Source: BindingDB's records for PubMed 7523657 (Eli Lilly, 1994)

Legend:
[1] = target: 5-hydroxytryptamine receptor 1D (Rattus norvegicus, UniProt P28565)
[2] = target: 5-hydroxytryptamine receptor 1B (Rattus norvegicus, UniProt P28564)
[3] = target: 5-hydroxytryptamine receptor 2A (Rattus norvegicus, UniProt P14842)
[4] = target: Histamine H1 receptor (Rattus norvegicus, UniProt P31390)
[5] = target: T1, 5-hydroxytryptamine receptor 3A (Rattus norvegicus, UniProt P35563)
T1 sequence (P35563 whole entry): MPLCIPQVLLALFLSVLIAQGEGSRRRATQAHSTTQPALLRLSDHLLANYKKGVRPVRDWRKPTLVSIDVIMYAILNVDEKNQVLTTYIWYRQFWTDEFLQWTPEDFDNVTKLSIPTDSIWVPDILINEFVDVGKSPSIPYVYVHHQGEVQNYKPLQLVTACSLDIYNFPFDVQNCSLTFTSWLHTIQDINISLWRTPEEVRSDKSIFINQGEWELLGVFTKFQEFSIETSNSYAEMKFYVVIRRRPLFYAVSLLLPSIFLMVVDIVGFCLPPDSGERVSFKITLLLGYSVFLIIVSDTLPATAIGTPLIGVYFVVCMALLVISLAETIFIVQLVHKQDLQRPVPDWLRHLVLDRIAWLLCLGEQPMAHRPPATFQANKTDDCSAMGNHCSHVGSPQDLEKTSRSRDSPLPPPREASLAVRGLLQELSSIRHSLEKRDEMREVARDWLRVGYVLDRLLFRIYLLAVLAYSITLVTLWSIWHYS

[6] = target: Beta-2 adrenergic receptor (Rattus norvegicus, UniProt P10608)
Sequence of Beta-2 adrenergic receptor (P10608 whole entry): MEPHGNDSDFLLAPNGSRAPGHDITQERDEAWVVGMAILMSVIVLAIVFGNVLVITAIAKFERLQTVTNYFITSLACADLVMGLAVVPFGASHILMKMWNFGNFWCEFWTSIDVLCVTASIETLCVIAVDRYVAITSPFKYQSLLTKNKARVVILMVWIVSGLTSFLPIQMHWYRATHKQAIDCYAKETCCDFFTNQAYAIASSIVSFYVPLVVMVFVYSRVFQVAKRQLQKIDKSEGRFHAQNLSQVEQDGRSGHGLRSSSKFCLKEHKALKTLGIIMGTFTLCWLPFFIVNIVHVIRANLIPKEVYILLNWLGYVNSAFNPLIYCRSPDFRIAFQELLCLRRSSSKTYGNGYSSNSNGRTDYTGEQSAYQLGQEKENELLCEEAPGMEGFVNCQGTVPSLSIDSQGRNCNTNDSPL

[7] = target: T2, 5-hydroxytryptamine receptor 2C (Rattus norvegicus, UniProt P08909)
T2 sequence (P08909 whole entry): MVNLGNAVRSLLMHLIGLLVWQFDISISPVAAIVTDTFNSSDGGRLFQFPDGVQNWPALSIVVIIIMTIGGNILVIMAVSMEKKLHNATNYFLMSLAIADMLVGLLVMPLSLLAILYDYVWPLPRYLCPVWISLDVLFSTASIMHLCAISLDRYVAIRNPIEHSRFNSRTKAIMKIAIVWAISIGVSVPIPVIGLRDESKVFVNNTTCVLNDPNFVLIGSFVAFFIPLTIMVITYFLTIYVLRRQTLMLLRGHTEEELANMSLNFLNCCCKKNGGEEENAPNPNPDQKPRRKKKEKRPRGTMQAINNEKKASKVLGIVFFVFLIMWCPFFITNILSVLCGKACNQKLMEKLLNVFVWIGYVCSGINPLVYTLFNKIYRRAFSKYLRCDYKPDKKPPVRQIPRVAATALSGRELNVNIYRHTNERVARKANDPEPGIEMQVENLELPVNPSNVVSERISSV

[8] = target: D(1A) dopamine receptor (Rattus norvegicus, UniProt P18901)
Sequence of D(1A) dopamine receptor (P18901 whole entry): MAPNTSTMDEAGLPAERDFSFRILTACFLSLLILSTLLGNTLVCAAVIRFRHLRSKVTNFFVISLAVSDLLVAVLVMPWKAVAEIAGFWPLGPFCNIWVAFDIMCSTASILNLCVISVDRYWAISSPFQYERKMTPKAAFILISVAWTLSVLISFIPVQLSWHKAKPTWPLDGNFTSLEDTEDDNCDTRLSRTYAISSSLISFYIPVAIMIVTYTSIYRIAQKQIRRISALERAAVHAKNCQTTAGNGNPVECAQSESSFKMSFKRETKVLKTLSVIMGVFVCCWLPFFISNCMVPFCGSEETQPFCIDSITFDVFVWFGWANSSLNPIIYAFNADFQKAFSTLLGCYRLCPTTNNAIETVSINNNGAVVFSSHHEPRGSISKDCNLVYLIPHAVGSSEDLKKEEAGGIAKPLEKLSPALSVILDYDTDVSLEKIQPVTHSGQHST

[9] = target: T3, Muscarinic acetylcholine receptor M2 (Rattus norvegicus, UniProt P10980)
T3 sequence (P10980 whole entry): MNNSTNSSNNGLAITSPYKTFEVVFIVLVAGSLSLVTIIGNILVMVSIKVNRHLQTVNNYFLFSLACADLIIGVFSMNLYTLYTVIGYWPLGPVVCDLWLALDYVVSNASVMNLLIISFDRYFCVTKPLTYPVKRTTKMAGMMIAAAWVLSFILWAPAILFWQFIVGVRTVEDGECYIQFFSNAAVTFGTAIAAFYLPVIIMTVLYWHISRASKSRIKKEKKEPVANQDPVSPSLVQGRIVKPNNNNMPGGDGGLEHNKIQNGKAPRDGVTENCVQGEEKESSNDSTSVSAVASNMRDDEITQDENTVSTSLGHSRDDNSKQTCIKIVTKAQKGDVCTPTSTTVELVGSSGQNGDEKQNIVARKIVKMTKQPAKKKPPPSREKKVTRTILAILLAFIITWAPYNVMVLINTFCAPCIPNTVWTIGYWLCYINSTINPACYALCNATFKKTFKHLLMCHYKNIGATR

[10] = target: Gamma-aminobutyric acid receptor subunit alpha-1 (Rattus norvegicus, UniProt P62813)
Sequence of Gamma-aminobutyric acid receptor subunit alpha-1 (P62813 whole entry): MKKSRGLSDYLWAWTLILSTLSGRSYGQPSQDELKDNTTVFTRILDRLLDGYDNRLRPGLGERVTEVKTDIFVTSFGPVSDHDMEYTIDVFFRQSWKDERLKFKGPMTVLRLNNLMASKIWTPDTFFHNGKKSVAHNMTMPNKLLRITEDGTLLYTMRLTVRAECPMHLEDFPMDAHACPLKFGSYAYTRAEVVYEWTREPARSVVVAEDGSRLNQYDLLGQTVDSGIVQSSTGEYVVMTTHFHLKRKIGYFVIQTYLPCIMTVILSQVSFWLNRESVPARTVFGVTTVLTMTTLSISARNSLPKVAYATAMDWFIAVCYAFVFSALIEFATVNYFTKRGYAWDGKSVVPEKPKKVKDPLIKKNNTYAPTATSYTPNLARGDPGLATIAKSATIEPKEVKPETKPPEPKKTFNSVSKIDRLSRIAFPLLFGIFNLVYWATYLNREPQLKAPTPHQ

[11] = target: T4, Alpha-2C adrenergic receptor (Rattus norvegicus, UniProt P22086)
T4 sequence (P22086 whole entry): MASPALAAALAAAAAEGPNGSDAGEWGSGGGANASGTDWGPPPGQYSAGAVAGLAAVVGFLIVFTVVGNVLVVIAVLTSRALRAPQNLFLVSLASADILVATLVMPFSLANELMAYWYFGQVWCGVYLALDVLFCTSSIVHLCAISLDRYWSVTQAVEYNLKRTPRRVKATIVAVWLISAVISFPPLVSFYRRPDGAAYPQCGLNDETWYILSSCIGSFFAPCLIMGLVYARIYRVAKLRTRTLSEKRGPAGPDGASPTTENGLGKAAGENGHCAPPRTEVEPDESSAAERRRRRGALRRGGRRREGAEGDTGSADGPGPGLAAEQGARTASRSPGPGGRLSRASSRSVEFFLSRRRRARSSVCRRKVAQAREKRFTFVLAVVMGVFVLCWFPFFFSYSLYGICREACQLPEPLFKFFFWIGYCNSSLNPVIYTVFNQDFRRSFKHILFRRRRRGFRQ

[12] = target: T5, Alpha-1A adrenergic receptor (Rattus norvegicus, UniProt P43140)
T5 sequence (P43140 whole entry): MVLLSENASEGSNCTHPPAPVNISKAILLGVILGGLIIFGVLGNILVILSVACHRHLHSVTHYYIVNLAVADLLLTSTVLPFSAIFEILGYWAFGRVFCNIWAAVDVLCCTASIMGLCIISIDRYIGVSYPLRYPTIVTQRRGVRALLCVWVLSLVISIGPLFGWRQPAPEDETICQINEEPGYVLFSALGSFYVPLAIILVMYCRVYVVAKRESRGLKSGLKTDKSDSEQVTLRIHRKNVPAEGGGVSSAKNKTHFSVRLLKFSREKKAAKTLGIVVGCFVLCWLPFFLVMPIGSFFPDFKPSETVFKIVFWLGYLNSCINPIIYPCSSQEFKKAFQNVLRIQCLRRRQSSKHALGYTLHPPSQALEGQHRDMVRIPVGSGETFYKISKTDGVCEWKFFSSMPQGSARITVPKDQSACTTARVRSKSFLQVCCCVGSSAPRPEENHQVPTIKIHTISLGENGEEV

[13] = target: D(2) dopamine receptor (Rattus norvegicus, UniProt P61169)
Sequence of D(2) dopamine receptor (P61169 whole entry): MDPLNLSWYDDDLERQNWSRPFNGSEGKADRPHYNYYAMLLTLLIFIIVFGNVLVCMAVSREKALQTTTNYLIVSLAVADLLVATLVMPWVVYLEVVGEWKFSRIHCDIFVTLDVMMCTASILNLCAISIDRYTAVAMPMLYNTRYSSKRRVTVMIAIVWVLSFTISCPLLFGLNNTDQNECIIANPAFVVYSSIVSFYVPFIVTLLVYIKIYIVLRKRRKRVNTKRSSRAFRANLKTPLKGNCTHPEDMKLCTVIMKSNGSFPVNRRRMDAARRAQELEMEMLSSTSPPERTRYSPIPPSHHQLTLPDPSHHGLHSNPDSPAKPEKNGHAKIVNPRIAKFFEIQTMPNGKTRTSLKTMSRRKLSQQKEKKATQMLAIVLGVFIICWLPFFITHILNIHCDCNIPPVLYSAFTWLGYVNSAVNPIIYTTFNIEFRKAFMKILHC

Sequence of 5-hydroxytryptamine receptor 1D (P28565 whole entry): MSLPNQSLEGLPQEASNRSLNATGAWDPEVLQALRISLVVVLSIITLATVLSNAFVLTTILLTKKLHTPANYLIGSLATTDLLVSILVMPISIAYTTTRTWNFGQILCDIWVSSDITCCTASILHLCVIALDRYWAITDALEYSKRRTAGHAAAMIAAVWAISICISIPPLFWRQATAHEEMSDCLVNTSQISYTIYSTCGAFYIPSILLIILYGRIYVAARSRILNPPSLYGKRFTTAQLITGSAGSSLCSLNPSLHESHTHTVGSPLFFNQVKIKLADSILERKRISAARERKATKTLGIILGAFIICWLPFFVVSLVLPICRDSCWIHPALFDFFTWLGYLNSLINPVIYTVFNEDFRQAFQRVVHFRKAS
Sequence of 5-hydroxytryptamine receptor 2A (P14842 whole entry): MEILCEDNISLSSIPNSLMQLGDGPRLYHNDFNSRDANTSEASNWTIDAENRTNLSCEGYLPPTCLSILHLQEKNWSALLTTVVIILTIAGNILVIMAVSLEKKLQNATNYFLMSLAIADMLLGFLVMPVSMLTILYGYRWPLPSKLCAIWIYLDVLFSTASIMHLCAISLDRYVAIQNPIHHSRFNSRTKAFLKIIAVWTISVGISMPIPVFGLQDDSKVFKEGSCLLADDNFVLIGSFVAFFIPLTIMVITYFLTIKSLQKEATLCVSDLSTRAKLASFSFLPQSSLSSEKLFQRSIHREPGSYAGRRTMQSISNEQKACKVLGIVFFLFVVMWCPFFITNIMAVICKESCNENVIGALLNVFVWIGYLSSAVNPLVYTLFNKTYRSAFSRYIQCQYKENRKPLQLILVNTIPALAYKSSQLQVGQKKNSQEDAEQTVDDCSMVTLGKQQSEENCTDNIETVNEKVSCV
Sequence of 5-hydroxytryptamine receptor 1B (P28564 whole entry): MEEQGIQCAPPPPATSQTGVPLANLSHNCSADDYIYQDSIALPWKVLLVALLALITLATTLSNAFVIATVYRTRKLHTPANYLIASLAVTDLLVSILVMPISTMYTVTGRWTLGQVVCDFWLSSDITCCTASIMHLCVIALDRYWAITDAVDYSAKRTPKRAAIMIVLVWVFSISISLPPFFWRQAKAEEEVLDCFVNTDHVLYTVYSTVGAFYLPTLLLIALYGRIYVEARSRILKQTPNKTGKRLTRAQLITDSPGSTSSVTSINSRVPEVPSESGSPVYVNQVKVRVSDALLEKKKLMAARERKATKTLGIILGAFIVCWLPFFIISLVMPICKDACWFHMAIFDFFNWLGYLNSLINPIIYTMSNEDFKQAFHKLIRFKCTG
Sequence of Histamine H1 receptor (P31390 whole entry): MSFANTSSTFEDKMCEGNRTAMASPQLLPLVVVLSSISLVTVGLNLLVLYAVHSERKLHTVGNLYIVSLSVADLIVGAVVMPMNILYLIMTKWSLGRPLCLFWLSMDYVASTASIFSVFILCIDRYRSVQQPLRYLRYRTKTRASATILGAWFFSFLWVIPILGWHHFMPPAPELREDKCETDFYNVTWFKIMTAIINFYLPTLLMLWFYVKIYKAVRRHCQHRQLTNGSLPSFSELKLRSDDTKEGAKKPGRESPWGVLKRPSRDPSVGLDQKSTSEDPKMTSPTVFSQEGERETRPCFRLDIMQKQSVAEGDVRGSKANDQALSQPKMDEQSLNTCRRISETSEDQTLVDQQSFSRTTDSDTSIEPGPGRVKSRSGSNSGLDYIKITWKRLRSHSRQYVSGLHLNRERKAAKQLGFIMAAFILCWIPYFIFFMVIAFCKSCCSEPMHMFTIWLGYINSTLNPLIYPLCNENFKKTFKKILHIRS

`CCCN(CCC)C1Cc2c[nH]c3ccc(C(C)=O)c(c23)C1` (stereo not drawn) [LY-293384] was tested, and the Ki [1] was 66.9 nM, the Ki [2] was 1000 nM and the Ki [3] was 1000 nM. The Ki [4] was 1000 nM, the Ki [5] was 1000 nM and the Ki [6] was 1000 nM. The Ki [7] was 1000 nM, the Ki [8] was 1000 nM and the Ki [9] was 1000 nM. The Ki [10] was 1000 nM, the Ki [11] was 1000 nM and the Ki [12] was 1000 nM. The Ki [13] was 1000 nM.
